pEC50, pIC50: −log10 of the molar value. Where “and” joins values, the source holds several entries; their conditions need not be identical. Identical values can stand only once.
Key:
Thromboxane-A synthase = biological target: T1, Thromboxane-A synthase (Homo sapiens, UniProt P24557)
T1 sequence (P24557 whole entry): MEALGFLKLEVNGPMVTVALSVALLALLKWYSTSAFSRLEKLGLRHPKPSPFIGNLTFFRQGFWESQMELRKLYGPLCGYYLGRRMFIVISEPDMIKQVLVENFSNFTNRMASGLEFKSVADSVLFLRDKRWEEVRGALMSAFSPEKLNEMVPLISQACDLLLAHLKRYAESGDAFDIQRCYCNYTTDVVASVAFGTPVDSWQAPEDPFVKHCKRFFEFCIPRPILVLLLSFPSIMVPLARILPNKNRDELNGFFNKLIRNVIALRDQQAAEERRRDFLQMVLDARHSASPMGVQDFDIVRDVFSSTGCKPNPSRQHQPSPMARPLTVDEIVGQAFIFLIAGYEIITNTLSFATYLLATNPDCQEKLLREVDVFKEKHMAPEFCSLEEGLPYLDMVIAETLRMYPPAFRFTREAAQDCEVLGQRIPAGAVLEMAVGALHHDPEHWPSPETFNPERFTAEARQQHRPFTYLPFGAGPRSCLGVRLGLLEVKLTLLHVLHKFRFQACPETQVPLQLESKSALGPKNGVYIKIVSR
Description: Inhibition test of thromboxane A2 synthetase in human gel-filtered platelets.

Thromboxane A2 receptor = biological target: T2, Thromboxane A2 receptor (Homo sapiens, UniProt P21731)
T2 sequence (P21731 whole entry): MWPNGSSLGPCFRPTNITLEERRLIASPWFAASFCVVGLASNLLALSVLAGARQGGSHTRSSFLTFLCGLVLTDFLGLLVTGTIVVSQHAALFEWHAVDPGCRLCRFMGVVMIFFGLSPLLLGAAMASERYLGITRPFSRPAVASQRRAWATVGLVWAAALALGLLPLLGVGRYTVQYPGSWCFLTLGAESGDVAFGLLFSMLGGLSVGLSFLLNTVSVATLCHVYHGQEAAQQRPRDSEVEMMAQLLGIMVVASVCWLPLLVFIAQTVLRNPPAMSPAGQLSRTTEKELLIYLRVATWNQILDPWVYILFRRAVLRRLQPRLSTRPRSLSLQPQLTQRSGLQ

Homo sapiens = species: Homo sapiens; experiment: tissue or blood; type: functional, organism-based; settings: Plasma
Description: Inhibition of collagen-induced platelet aggregation in human platelet-rich plasma.

pIC50 (Thromboxane-A synthase) | pIC50 (Thromboxane A2 receptor) | pEC50 (Homo sapiens) | SMILES
8.40 | 6.64 | 5.96 | Cn1c(CCNS(=O)(=O)c2ccc(F)cc2)ccc1/C(=C\CCCC(=O)O)c1cccnc1
7.00 | 6.92 | < 4.00 | O=C(O)CCC/C=C(\c1ccc(CCN(CCC(=O)O)S(=O)(=O)c2ccc(Cl)cc2)cc1)c1cccnc1
6.51 | 7.21 | 4.36 | O=C(O)CCC/C=C(\c1ccc(CCN(CC(=O)O)S(=O)(=O)c2ccc(Cl)cc2)cc1)c1cccnc1
8.10 | 7.89 | 5.30 | O=C(O)CCC/C=C(/c1cccnc1)c1ccc2c(c1)CCC(NS(=O)(=O)c1ccc(Cl)cc1)C2 (stereo not drawn)
4.35 | 5.96 | < 4.00 | O=C(O)CCC/C=C(\c1ccc(CCNS(=O)(=O)c2ccc(Cl)cc2)cc1)c1ccc[n+]([O-])c1
8.70 | 7.08 | 5.92 | O=C(O)CCCCC(c1ccc(CCNS(=O)(=O)c2ccc(Cl)cc2)cc1)c1cccnc1 (stereo not drawn)
8.22 | 7.55 | 5.55 | O=C(O)CCC/C=C(\c1ccc(CCNS(=O)(=O)c2ccc(C(F)(F)F)cc2)cc1)c1cccnc1
7.62 | 7.72 | 5.82 | O=C(O)CCCC/C=C(\c1ccc(CCNS(=O)(=O)c2ccc(Cl)cc2)cc1)c1cccnc1
7.37 | 7.21 | 4.96 | O=C(O)CCC/C=C(\c1ccc(CCN(Cc2ccccc2)S(=O)(=O)c2ccc(Cl)cc2)cc1)c1cccnc1
8.30 | 5.96 | 5.47 | CCCCS(=O)(=O)NCCc1ccc(/C(=C\CCCC(=O)O)c2cccnc2)cc1
8.40 | 7.24 | 4.68 | O=C(O)CCC/C=C(\c1ccc(CCN(CCN2CCOCC2)S(=O)(=O)c2ccc(Cl)cc2)cc1)c1cccnc1
8.30 | 6.47 | 4.80 | COc1ccc(S(=O)(=O)NCCc2ccc(/C(=C\CCCC(=O)O)c3cccnc3)cc2)cc1OC
9.00 | 8.05 | 6.25 | O=C(O)CCC/C=C(/c1cccnc1)c1ccc2c(c1)CC(NS(=O)(=O)c1ccc(F)cc1)C2 (stereo not drawn)
7.41 | 7.03 | 4.55 | NC(=O)CCC/C=C(\c1ccc(CCNS(=O)(=O)c2ccc(Cl)cc2)cc1)c1cccnc1
7.82 | 7.60 | 4.62 | CN(CCc1ccc(/C(=C\CCCC(=O)O)c2cccnc2)cc1)S(=O)(=O)c1ccc(Cl)cc1
5.57 | 5.92 | < 4.00 | Cc1ccc(S(=O)(=O)NCCc2ccc(/C(=C\C(=O)O)c3cccnc3)cc2)cc1
7.68 | 5.92 | 5.02 | O=C(O)CCC/C=C(\c1ccc(CCNC(=O)Cc2ccccc2)cc1)c1cccnc1
7.37 | 6.68 | 4.26 | O=C(O)CCC/C=C(\c1ccc(CCNC(=O)c2ccc(Cl)cc2)cc1)c1cccnc1
8.30 | 7.28 | 5.00 | COc1ccc(S(=O)(=O)NCCc2ccc(/C(=C\CCCC(=O)O)c3cccnc3)cc2)cc1
7.36 | 6.52 | 4.40 | CN(C)C(=O)CCC/C=C(\c1ccc(CCNS(=O)(=O)c2ccc(Cl)cc2)cc1)c1cccnc1
8.40 | 7.00 | 4.52 | O=C(O)c1cccc(/C=C(\c2ccc(CCNS(=O)(=O)c3ccc(Cl)cc3)cc2)c2cccnc2)c1
7.51 | 6.68 | 5.92 | O=C(O)CCCCCC(c1ccc(CCNS(=O)(=O)c2ccc(Cl)cc2)cc1)c1cccnc1 (stereo not drawn)
8.30 | 7.09 | 5.47 | O=C(O)CCC/C=C(\c1ccc(CCNS(=O)(=O)c2ccccc2)cc1)c1cccnc1
8.40 | 7.48 | 4.89 | CCN(CCc1ccc(/C(=C\CCCC(=O)O)c2cccnc2)cc1)S(=O)(=O)c1ccc(Cl)cc1
7.22 | 7.59 | 5.37 | O=C(O)CCO/N=C(\c1ccc(CCNS(=O)(=O)c2ccc(Cl)cc2)cc1)c1cccnc1

pIC50 (Thromboxane-A synthase) | pIC50 (Thromboxane A2 receptor) | pEC50 (Homo sapiens) | SMILES
8.15 | 7.26 | 5.30 | O=C(O)CCC/C=C(\c1ccc(CNS(=O)(=O)c2ccc(Cl)cc2)cc1)c1cccnc1
4.82 | 5.52 | < 4.00 | Cc1ccc(S(=O)(=O)NCCc2ccc(/C(=C\C(=O)NCC(=O)O)c3cccnc3)cc2)cc1
8.30 | 6.59 | 5.28 | O=C(O)CCC/C=C(\c1ccc(CCNS(=O)(=O)Cc2ccccc2)cc1)c1cccnc1
8.30 | 7.48 | 6.15 | Cc1ccc(S(=O)(=O)NCCc2ccc(/C(=C\CCCC(=O)O)c3cccnc3)cc2)cc1
8.40 | 7.18 | 5.51 | O=C(O)CCC/C=C(\c1ccc(CCNS(=O)(=O)c2ccc(F)cc2)cc1)c1cccnc1
7.68 | 7.92 | 5.02 | O=S(=O)(NCCc1ccc(/C(=C\CCCc2nnn[nH]2)c2cccnc2)cc1)c1ccc(Cl)cc1
6.82 | 6.70 | 4.22 | CC(C)(C)OC(=O)CCC/C=C(\c1ccc(CCNS(=O)(=O)c2ccc(Cl)cc2)cc1)c1cccnc1
7.34 | 7.55 | < 4.00 | O=C(O)CCC/C=C(\c1ccc(CCN(Cc2ccc(C(=O)O)cc2)S(=O)(=O)c2ccc(Cl)cc2)cc1)c1cccnc1
7.62 | 6.48 | 4.33 | O=C(O)CCC/C=C(\CCCNS(=O)(=O)c1ccc(Cl)cc1)c1cccnc1
8.30 | 6.57 | < 4.00 | O=C(O)CCC/C=C(\c1ccc(NS(=O)(=O)c2ccc(Cl)cc2)cc1)c1cccnc1
7.68 | 7.38 | 4.44 | O=C(O)CC/C=C(\c1ccc(CCNS(=O)(=O)c2ccc(Cl)cc2)cc1)c1cccnc1
8.15 | 7.22 | 4.40 | O=C(O)CCC/C=C(/c1cccnc1)c1cccc(NS(=O)(=O)c2ccc(Cl)cc2)c1
7.57 | 6.89 | 4.28 | O=C(O)c1ccc(/C=C(\c2ccc(CCNS(=O)(=O)c3ccc(Cl)cc3)cc2)c2cccnc2)cc1
8.22 and 8.40 | 8.22 | 5.24 | O=C(O)CCC(CCCCNS(=O)(=O)c1ccc(Cl)cc1)CCCc1cccnc1 (stereo not drawn)
7.01 | 7.13 | 4.92 | O=C(O)CCCC(c1ccc(CCNS(=O)(=O)c2ccc(Cl)cc2)cc1)c1cccnc1 (stereo not drawn)
6.00 | 7.92 | 4.43 | O=C(O)C/C=C(\c1ccc(CCNS(=O)(=O)c2ccc(Cl)cc2)cc1)c1cccnc1
7.48 | 7.44 | 4.96 | COC(=O)CCC/C=C(\c1ccc(CCNS(=O)(=O)c2ccc(Cl)cc2)cc1)c1cccnc1
8.30 | 7.31 | 5.04 | NC(=O)CN(CCc1ccc(/C(=C\CCCC(=O)O)c2cccnc2)cc1)S(=O)(=O)c1ccc(Cl)cc1
7.60 | 7.29 | < 4.00 | CC(C)N(CCc1ccc(/C(=C\CCCC(=O)O)c2cccnc2)cc1)S(=O)(=O)c1ccc(Cl)cc1
7.72 | 7.38 | 4.52 | Cc1cc(C)c(S(=O)(=O)NCCc2ccc(/C(=C\CCCC(=O)O)c3cccnc3)cc2)c(C)c1
8.40 | 7.92 | 5.77 | O=C(O)CCC/C=C(/c1cccnc1)c1cccc(CCNS(=O)(=O)c2ccc(Cl)cc2)c1
6.60 | 6.77 | 4.62 | CNC(=O)CCC/C=C(\c1ccc(CCNS(=O)(=O)c2ccc(Cl)cc2)cc1)c1cccnc1
8.40 and 8.10 | 5.77 and 5.28 | 4.80 | O=C(O)CCCCO/N=C(/c1cccnc1)c1cccc(C(F)(F)F)c1 [RIDOGREL]
8.30 | 7.68 | 5.42 | O=C(O)CCC/C=C(/c1cccnc1)c1cccc(CNS(=O)(=O)c2ccc(Cl)cc2)c1

SMILES | pIC50 (Thromboxane-A synthase) | pIC50 (Thromboxane A2 receptor) | pEC50 (Homo sapiens)
O=C(O)CCC/C=C(/c1ccc(CCNS(=O)(=O)c2ccc(Cl)cc2)cc1)c1cccnc1 | 6.31 | 6.42 | 4.37
O=C(O)CCC/C=C(\c1ccc(CCNS(=O)(=O)c2ccc(Cl)cc2)cc1)c1cccnc1 [SAMIXOGREL] | 8.40 | 7.72 | 6.00

Source: ChEMBL document CHEMBL1127824, “6,6-Disubstituted Hex-5-enoic acid derivatives as combined thromboxane A2 receptor antagonists and synthetase inhibitors” (J Med Chem, 1994)
